Test results: ChEMBL document CHEMBL5046225, “Discovery and Optimization of Orally Bioavailable Phthalazone and Cinnolone Carboxylic Acid Derivatives as S1P2 Antagonists against Fibrotic Diseases” (J Med Chem, 2021)
Converted amounts (≈) assume the structure as drawn.

Assays:
CYP450 = CYP450 (Homo sapiens, UniProt P04798+P05177+P05181+P08684+P10632+P10635+P11509+P11712+P13584+P20813+P20815+P20853+P24462+P24903+P33260+P33261+P51589+P78329+P98187+Q02928+Q08477+Q16678+Q16696+Q5TCH4+Q6VVX0+Q7Z449+Q8TAV3+Q96SQ9+Q9HB55); assay: Inhibition of CYP450 in human liver microsomes; format: ADME
Cytochrome P450 3A4 = Cytochrome P450 3A4 (Homo sapiens, UniProt P08684); assay: Induction of CYP3A4 in human cryopreserved hepatocytes assessed as mRNA expression at 10 uM incubated for 72 hrs relative to control; format: ADME, cell-based, Hepatocyte
Cytochrome P450 3A4, sequence (P08684 whole entry): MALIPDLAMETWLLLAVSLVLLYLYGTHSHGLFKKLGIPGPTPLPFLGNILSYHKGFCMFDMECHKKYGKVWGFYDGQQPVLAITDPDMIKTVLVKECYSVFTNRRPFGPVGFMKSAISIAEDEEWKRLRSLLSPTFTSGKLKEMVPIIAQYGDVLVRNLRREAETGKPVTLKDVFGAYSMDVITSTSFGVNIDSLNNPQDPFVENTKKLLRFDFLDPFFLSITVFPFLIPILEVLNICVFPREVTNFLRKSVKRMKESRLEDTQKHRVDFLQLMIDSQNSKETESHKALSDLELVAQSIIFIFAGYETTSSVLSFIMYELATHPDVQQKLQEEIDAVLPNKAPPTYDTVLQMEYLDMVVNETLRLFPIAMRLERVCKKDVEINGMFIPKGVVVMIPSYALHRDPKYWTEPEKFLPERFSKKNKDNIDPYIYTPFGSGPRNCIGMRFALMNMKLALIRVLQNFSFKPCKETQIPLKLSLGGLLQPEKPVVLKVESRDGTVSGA

PXR = biological target: T1, PXR (Homo sapiens, UniProt O75469); assay: Activation of PXR in human DPX2 cells at 10 uM incubated for 24 hrs relative to control; format: ADME, cell-based; conditions: read-out: Activity
T1 sequence (O75469 whole entry): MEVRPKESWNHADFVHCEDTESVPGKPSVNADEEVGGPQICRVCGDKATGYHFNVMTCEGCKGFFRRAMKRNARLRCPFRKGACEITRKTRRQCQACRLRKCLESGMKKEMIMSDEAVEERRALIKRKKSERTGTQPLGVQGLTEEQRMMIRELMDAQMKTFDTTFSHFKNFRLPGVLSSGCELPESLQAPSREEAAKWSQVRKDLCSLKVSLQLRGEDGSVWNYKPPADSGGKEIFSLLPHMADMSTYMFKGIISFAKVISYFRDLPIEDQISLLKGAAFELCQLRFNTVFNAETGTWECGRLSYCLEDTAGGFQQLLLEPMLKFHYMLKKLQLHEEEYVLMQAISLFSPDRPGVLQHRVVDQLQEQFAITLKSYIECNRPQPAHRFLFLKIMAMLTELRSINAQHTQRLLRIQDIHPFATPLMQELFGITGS

[1] = biological target: T2, Sphingosine 1-phosphate receptor 2 (Homo sapiens, UniProt O95136); assay: Antagonist activity at S1P2 (unknown origin); format: functional
T2 sequence (O95136 whole entry): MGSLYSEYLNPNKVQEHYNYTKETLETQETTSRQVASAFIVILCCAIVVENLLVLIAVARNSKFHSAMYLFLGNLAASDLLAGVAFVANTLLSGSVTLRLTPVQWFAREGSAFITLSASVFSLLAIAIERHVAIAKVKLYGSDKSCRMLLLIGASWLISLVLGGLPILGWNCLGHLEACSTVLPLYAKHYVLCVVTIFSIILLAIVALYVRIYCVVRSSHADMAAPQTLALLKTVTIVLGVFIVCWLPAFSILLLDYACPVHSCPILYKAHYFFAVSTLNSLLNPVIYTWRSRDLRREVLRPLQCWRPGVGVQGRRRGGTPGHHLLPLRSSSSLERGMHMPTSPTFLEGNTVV

[2] = biological target: Sphingosine 1-phosphate receptor 1 (Homo sapiens, UniProt P21453); assay: Antagonist activity at human S1P1 receptor expressed in CHO cells assessed as inhibition of calcium flux; format: functional, cell-based
Sphingosine 1-phosphate receptor 1, sequence (P21453 whole entry): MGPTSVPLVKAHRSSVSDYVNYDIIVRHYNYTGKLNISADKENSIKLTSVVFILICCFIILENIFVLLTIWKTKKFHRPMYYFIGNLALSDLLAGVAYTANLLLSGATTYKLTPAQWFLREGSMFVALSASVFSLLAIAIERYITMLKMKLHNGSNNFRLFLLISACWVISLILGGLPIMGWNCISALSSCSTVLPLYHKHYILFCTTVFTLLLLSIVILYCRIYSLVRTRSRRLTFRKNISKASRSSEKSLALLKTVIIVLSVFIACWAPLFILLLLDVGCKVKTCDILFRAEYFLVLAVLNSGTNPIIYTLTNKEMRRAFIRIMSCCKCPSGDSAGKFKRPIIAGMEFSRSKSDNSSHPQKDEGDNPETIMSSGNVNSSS

[3] = Lipophilicity, logD of the compound at pH 7.4 by chromatographic method; conditions: buffer
[4] = biological target: T2, Sphingosine 1-phosphate receptor 2; assay: Antagonist activity at human S1P2 receptor expressed in CHO cells assessed as inhibition of calcium flux
[5] = biological target: T2, Sphingosine 1-phosphate receptor 2; assay: Agonist activity at human S1P2 receptor expressed in CHO cells assessed as increase in calcium flux
[6] = Efflux ratio of apparent permeability across apical to basolateral side in human Caco-2 cells at pH 6.5 at 10 uM incubated for 60 mins by UHPLC analysis; conditions: Caco-2, pH 6.5
[7] = biological target: T2, Sphingosine 1-phosphate receptor 2; assay: Antagonist activity at human S1P2 receptor expressed in CHO cells assessed as inhibition of [35S]GTPgammaS binding
[8] = Volume of distribution at steady state in CD1 mouse at 1 mg/kg, iv measured up to 24 hrs by LC-MS/MS analysis; conditions: in vivo
[9] = Half life in CD1 mouse at 1 mg/kg, iv measured up to 24 hrs by LC-MS/MS analysis; conditions: in vivo
[10] = Unbound plasma concentration in CD1 mouse at 5 mg/kg, po or 1 mg/kg, iv measured up to 24 hrs by LC-MS/MS analysis
[11] = Thermodynamic solubility of compound at pH 7.4; conditions: buffer
[12] = Apparent permeability across apical to basolateral side in MDCK-MDR1 cells at 10 uM incubated for 1 hr by LC-MS/MS analysis; conditions: dog
[13] = Efflux ratio of apparent permeability across apical to basolateral side in MDCK-MDR1 cells at 10 uM incubated for 1 hr by LC-MS/MS analysis; conditions: dog
[14] = Apparent permeability across apical to basolateral side in human Caco-2 cells at pH 6.5 at 10 uM incubated for 60 mins by UHPLC analysis; conditions: Caco-2, pH 6.5
[15] = biological target: T2, Sphingosine 1-phosphate receptor 2
[16] = biological target: T2, Sphingosine 1-phosphate receptor 2; remark: listed apart in the source
cells = conditions: Homo sapiens, HFL1
in vivo = conditions: CD1, mouse, po, 5 mg/kg
[17] = biological target: T2, Sphingosine 1-phosphate receptor 2; assay: Displacement of sphingosine D-erythro [3-3H] I- phosphate from human S1P2 receptor expressed in CHO cell membrane

Row | SMILES | IC50 [2] [nM] | chromatographic logD [3] | IC50 [4] [nM] | IC50 [5] [nM] | IC50 [7] [nM] | IC50 [17] [nM] | further results
1 | C[C@H](C(=O)O)n1nc(Cn2cc3cc(OCC4CC4)c(Cl)cc3n2)c2ccccc2c1=O | – | – | – | – | – | – | IC50 (CYP450): > 100000 nM; Activity (Cytochrome P450 3A4): 4.4%; activity at 24 h, 10 µM (PXR): 5.7%
2 | Cc1nn(C)c2nc(NNC(=O)Nc3cc(Cl)nc(Cl)c3)cc(C(C)C)c12 | – | – | – | – | – | – | IC50 [1]: 17 nM
3 | COc1cc(OC)c(NC(=O)Cc2nn(CC(=O)O)c(=O)c3ccccc23)cc1Cl | > 19900 | – | – | – | – | – | –
4 | COc1ccc(NC(=O)Cc2nn(CC(=O)O)c(=O)c3ccccc23)c(OC)c1 | – | 1.13 | > 19900 | > 23300 | – | – | –
5 | CC(C(=O)O)c1nn(Cc2cn3cc(OCC4CC4)c(C(F)(F)F)cc3n2)c2ccccc2c1=O (racemic) | – | 2.99 | 3.4 | – | 51 | – | efflux ratio at 1 h, 10 µM [6]: 0.4; Vd at 24 h [8]: 0.66 L/kg; half-life at 24 h [9]: 1.9 h; fraction unbound at 24 h [10]: 0.007; solubility thermodynamic [11]: 221 µg/mL (≈ 454 µM); Papp A→B at 1 h, 10 µM [12]: 2.5 ×10⁻⁶ cm/s; efflux ratio at 1 h, 10 µM [13]: 3.7; Papp A→B at 1 h, 10 µM [14]: 15 ×10⁻⁶ cm/s; IC50 [15]: 5 nM; IC50 [16]: 56 nM; IC50 (cells): 0.7 nM; Cmax at 24 h (in vivo): 3520 ng/mL
6 | COc1cc(OC)c(NC(=O)Cc2cn(C)c3ccccc23)cc1Cl | > 19900 | 5.91 | > 8130 | > 23300 | 19200 | 3790 | –
7 | CCOc1cc2cn(Cc3nn(CC(=O)O)c(=O)c4ccccc34)nc2cc1Cl | – | – | 149 | – | 113 | – | IC50 [15]: 23 nM; IC50 [16]: 1620 nM; IC50 (cells): 34 nM
8 | COc1cc(OC)c(NC(=O)Cn2nc(CC(=O)O)c3ccccc32)cc1Cl | > 19900 | 1.86 | 3360 | > 23300 | 8980 | 2010 | –
9 | CCn1nc(CC(=O)Nc2ccc(OC(F)(F)F)c(Cl)c2)c2ccccc2c1=O | – | 5.42 | 199 | – | 473 | – | –
10 | COc1cc(OC)c(NC(=O)Cc2cn(CC(=O)O)c3ccccc23)cc1Cl | > 19900 | 2.13 | > 6640 | > 23300 | 17700 | 10700 | –
